Data set [1] in a line: Fluorescence characteristics of reduction products. The following applies: may be values measured in PBS at pH 7.4.
Text: These fluorescence characteristics may be values measured, for example, in phosphate-buffered saline (PBS) at pH 7.4.
In a further data set the test system is lactate dehydrogenase. Put plainly: Single-molecule coupled assay of lactate dehydrogenase oxidative activity in human plasma (microchamber array). It counts as biochemical. The following applies: for S/N ratio compared with SiRWST-3 or Q-dsAMC as fluorescent probe: same experiment, with SiRWST-3, 100 µM 1-MeO-PMS in place of NADH:quinone oxidoreductase. The protocol:
To a HEPES buffer (100 mM, pH 7.4) containing CaCl2 (1 mM), MgCl2 (1 mM), DTT (dithiothreitol, 100 µM), and Triton X-100 (200 µM), Q-sHMRG (30 µM), Q-HMRG (30 µM) or resazurin (30 µM), lactate (1 mM), NAD^+ (oxidized nicotinamide adenine dinucleotide, 500 µM), and NADH:quinone oxidoreductase (50 µg/mL, Toyobo, DAD-311) were added. Then, plasma obtained from a healthy human subject was added to give a 3000-fold dilution (preparation step, Step (A)). 40 µL of the solution (a pre-encapsulation aqueous solution) thus prepared was introduced into a microchamber array Simoa (registered trademark) disk (Quanterix). Subsequently, 80 µL of Fluorinert (registered trademark) FC-70 (Sigma-Aldrich) as a hydrophobic solvent was introduced into the microchamber array to remove an aqueous solution not introduced into wells, and thereby W/O droplets were formed in wells. After incubation at room temperature for 3 hours (reaction step, Step (B)), fluorescence images were acquired by an epifluorescence microscope Ti2 (Nikon) equipped with a 20× objective lens (Plan Apo 20×), an sCMOS camera (ORCA-Fusion C14440, Hamamatsu Photonics), a white light unit (X-Cite Xylis, Opto Science), and a motorized stage (fluorescence measurement step, Step (C)).

In data set [2] the test system is NADH:quinone oxidoreductase. Put plainly: Reactivity of Q-sHMRG with DT-diaphorase and increase in fluorescence. In kind it is biochemical, microorganism. The following applies: 1 µM probe, HEPES buffer pH 7.4, 25°C. The protocol:
Q-sHMRG prepared in Synthesis Example 1 was dissolved to give a final concentration of 1 µM in a HEPES buffer (100 mM, pH 7.4) containing CaCl2 (1 mM), MgCl2 (1 mM), DTT (dithiothreitol, 100 µM), and Triton X-100 (250 µM), and an absorption spectrum was measured. Then, NADH (100 µM) and NADH:quinone oxidoreductase (10 µg/mL, Toyobo, DAD-311) were added, and after incubation at 25°C for 4 hours, an absorption spectrum was measured again. Results are shown in (A) of FIG. 1.
Also, Q-sHMRG prepared in Synthesis Example 1 was dissolved to give a final concentration of 1 µM in a HEPES buffer (100 mM, pH 7.4) containing CaCl2 (1 mM), MgCl2 (1 mM), DTT (dithiothreitol, 100 µM), and Triton X-100 (250 µM), and then NADH at various concentrations and NADH:quinone oxidoreductase (10 µg/mL) were added. After incubation at 25°C for 30 minutes, fluorescence intensity was measured. Results are shown in (B) and (C) of FIG. 1.

This is an account of results in patent publication EP4711470A1, “METHOD AND KIT FOR EVALUATING ENZYME ACTIVITY” (The University of Tokyo, priority 2023, dated 2025).

Regarding `N=c1ccc2c(-c3ccc(S(=O)(=O)O)cc3CO)c3ccc(N)cc3oc-2c1` [sHMRG, 3',6'-diamino-3H-spiro[isobenzofuran-1,9'-xanthene]-5/6-sulfonic acid], the molar extinction coefficient in data set [1] (at maximum absorption wavelength) stood at 80000 L/mol/cm. In data set [1], the fluorescence quantum yield is listed as 0.92; the “mathematical product of molar extinction coefficient and fluorescence quantum yield” value is given as 74000; the maximum absorption wavelength was 498 nm; the maximum fluorescence wavelength stood at 517 nm.

On to `O=c1ccc2[n+]([O-])c3ccc(O)cc3oc-2c1` [resazurin, reference compound], for which the “S/N ratio compared with SiRWST-3 or Q-dsAMC as fluorescent probe” value in the data set with lactate dehydrogenase is on record as “larger”.

Take `CC1=C(C)C(=O)C(C(C)(C)CC(=O)Nc2ccc3c(c2)Oc2cc(N)ccc2C32OCc3ccc(S(=O)(=O)O)cc32)=C(C)C1=O` (stereo not shown) [Q-sHMRG]: the “fluorescence intensity increased by a reduction reaction by NADH:quinone oxidoreductase” value in data set [2] (NADH, NADH:quinone oxidoreductase 10 µg/mL (DAD-311)) was 235 fold. For the same compound, the “lowest quantity of NADH that the combination of probe and NADH:quinone oxidoreductase can detect” value in data set [2] (NADH:quinone oxidoreductase 10 µg/mL, 30 minutes) worked out at 0.01 µM. The “ratio (S/N ratio) of fluorescence intensity of a well encapsulating lactate dehydrogenase to a well not encapsulating it” value with lactate dehydrogenase (30 µM probe, lactate 1 mM, NAD+ 500 µM, plasma 3000-fold dilution, 3 hours, compared among Q-sHMRG, Q-HMRG and resazurin) is “greater”. For the same compound, the “S/N ratio compared with SiRWST-3 or Q-dsAMC as fluorescent probe” value in the data set on lactate dehydrogenase is on record as “larger”.
